Laboratory results: patent US20200062719A1, “Application of Imidazopyridine Derivatives in Regenerative Medicine” (University of Heidelberg, priority 2018, published 2020)

Experiments:
hiPSCs = assay: Differentiation markers in hiPSCs at high concentration; assay type: cell-based, human; conditions: 10 μM
KDM5C = target: T1, KDM5C (Homo sapiens, UniProt P41229); assay: KDM5C inhibition, enzyme immunoprecipitated from cells; assay type: biochemical
T1 construct: magnetic beads were used to immunoprecipitate the respective enzymes from 10^8 cells; endogenous in cells
T1 sequence (P41229 whole entry): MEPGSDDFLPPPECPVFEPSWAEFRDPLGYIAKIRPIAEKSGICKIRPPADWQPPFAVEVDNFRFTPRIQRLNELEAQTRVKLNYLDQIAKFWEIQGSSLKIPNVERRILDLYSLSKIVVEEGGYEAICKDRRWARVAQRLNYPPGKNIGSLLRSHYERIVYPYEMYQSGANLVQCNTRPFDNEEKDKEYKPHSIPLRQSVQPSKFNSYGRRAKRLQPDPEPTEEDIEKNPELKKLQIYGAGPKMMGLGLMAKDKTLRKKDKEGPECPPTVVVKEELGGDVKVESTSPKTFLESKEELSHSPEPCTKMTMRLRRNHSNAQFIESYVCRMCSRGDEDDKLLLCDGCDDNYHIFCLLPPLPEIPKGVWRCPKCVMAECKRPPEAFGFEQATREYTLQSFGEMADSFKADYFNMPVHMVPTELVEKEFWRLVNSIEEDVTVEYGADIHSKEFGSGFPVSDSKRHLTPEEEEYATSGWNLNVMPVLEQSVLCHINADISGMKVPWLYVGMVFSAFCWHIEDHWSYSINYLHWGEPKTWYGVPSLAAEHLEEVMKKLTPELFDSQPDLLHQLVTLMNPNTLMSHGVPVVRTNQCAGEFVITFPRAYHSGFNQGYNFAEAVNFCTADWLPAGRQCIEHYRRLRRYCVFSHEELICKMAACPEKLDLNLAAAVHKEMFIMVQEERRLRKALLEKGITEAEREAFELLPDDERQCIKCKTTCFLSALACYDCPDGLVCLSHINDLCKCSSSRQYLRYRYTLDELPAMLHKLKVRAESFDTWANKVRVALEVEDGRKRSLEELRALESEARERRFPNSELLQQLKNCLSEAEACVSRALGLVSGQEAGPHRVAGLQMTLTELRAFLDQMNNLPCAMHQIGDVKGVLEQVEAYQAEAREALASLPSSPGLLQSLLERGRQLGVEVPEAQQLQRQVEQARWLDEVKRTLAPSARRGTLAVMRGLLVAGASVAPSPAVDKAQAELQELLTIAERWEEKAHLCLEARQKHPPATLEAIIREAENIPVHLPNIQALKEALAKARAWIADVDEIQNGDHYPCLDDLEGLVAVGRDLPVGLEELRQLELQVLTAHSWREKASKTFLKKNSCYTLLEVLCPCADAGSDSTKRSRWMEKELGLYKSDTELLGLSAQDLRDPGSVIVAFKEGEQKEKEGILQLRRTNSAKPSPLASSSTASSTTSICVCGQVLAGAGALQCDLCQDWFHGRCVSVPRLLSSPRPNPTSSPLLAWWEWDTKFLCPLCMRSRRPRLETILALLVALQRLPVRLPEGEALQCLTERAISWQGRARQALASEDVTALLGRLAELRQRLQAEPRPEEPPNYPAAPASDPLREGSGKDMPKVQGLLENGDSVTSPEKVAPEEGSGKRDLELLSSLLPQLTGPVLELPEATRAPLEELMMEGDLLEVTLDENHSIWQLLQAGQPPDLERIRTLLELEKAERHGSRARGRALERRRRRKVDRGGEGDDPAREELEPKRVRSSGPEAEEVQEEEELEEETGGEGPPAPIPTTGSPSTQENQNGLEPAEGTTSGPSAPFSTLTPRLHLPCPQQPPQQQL
Source text: (§1) In mammalian cells, the KDM5 family consists of four members, namely, KDM5A (known as JARID1A), KDM5B (known as JARID1B or PLU1), KDM5C (JARID1C), and KDM5D (JARID1D or SMCY). […] Next, the inventors tested four KDM chemical inhibitors. […] The inventors detected the induction of OCT4, SOX2, and E-Cadherin expression in JIB-04-treated HFs (FIG. 18D).
(§2) Epiquik histone demethylase (H3K4 specific) activity/inhibition assay kit (Epigentek, Biocat, Germany) was used to measure the protective effect of O4I3 and zolpidem on the methylation of H3K4. Their inhibitory effects on LSD1, KDM5s, and KDM4 were determined using Epigenase jarid demethylase activity/inhibition assay kit, Epigenase JMJD2 demethylase activity/inhibition assay kit and EpiQuik histone demethylase LSD1 activity/inhibition assay kit (Epigentek, Biocat, Germany). The total nuclear extraction was used according to manufacturer's instructions. For measuring KDM5A, KDM5B, KDM5C, and KDM5D activity, magnetic beads were used to immunoprecipitate the respective enzymes from 10^8 cells according to the manufacturer's instructions (Cell Signaling Technologies).

KDM5B = target: T2, KDM5B (Homo sapiens, UniProt Q9UGL1); assay: KDM5B inhibition, enzyme immunoprecipitated from cells; assay type: biochemical
T2 construct: magnetic beads were used to immunoprecipitate the respective enzymes from 10^8 cells; endogenous in cells
T2 sequence (Q9UGL1 whole entry): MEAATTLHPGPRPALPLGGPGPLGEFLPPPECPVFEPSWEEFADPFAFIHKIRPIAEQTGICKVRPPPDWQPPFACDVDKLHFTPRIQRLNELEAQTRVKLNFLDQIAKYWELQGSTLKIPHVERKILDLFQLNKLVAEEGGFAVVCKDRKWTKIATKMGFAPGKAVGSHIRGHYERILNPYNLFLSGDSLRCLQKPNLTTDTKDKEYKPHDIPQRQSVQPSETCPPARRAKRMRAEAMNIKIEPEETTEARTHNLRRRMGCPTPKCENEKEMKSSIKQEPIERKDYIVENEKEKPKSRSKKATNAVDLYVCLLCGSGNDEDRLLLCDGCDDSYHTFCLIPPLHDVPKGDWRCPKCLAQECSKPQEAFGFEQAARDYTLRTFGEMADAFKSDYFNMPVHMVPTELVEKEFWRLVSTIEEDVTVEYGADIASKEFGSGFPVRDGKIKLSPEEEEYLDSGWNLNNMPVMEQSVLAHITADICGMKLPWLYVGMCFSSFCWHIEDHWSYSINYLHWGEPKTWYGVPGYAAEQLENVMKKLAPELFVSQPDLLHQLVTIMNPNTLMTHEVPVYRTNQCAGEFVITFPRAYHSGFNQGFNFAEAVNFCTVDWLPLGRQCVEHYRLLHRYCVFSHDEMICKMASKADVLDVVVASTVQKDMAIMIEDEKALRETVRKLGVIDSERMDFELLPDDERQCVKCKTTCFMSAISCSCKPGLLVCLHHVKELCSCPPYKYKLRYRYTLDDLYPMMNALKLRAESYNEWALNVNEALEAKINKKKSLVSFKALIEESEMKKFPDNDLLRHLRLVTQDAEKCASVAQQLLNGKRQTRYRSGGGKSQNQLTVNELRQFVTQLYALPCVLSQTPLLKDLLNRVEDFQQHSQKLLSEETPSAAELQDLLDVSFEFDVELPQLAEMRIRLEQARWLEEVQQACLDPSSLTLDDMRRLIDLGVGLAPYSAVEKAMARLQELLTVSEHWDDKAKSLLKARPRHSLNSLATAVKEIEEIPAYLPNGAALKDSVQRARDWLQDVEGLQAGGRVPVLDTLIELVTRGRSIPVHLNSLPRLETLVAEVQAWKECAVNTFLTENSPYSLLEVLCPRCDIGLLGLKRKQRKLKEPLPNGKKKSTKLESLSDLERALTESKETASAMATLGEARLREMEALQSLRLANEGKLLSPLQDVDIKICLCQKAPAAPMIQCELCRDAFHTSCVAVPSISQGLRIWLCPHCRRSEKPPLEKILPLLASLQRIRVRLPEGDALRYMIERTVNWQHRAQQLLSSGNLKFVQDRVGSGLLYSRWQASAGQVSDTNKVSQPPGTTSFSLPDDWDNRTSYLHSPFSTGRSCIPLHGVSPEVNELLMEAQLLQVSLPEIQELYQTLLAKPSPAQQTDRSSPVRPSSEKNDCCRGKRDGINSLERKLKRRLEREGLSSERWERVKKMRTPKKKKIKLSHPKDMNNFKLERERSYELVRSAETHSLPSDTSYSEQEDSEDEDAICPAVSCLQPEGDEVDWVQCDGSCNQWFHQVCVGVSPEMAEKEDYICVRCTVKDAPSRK
Source text: as §1, §2

KDM4 [1] = assay: KDM4 (JMJD2) demethylase inhibition, nuclear extraction; assay type: biochemical
Source text: (§3) HMT and HDM are two major classes of enzymes, contributing to the regulation of histone methylation. Lysine-specific demethylase 1 (LSD1) and histone lysine demethylase 5 (KDM5, also known as JARID1) majorly catalyze demethylation of H3K4. A few KDM5 chemical inhibitors have been reported to inhibit demethylation of H3K4, leading to an increase of global methylated H3K4 in various cell types. The inventors tested the inhibitory effect of O4I3 on LSD1 and KDM5. KDM4 (also known as JMJD2), the HDM of H3K9 and H3K36, was also included.
as §2

KDM4 [2] = target: T3, KDM4; assay: as above; assay type: biochemical; conditions: whole-cell nuclear extraction
T3 construct: other: whole-cell nuclear extraction; other: micromolar concentrations
Source text: as §3, §2

KDM5 = KDM5 demethylase inhibition, whole-cell nuclear extraction; assay type: biochemical; conditions: whole-cell nuclear extraction
Source text: as §3, §2

neural stem cells = assay: Maintenance of neural stem cells, MTT viability; assay type: cell-based; conditions: starting from 1 nM
Method: Neural stem cells were cultivated in SPN medium (DMEM-F12 Knockout medium containing 2% StemPro® NSC SFM, EGF (20 ng/mL) and FGF (20 ng/mL)) until cell confluence reached 80-90%. Acutase was used to get single cell suspension and washed with PBS. 20,000 cells/[…] were seeded into matrigel-coated plates using SPN medium with or without O4I3. The MTT assay was applied to determine cell viability.
The self-renewal of multipotent neural stem cells was also tested with the compound of the current invention. Neural stem cells were cultivated in SPN medium with or without O4I3 at different final concentrations (FIG. 7). The MTT assay was applied to determine cell viability. Starting from a concentration of 1 nM O4I3 the viability of neural stem cells was increased in comparison to mock treated neural stem cells.

[3] = test system: reprogramming-related proteins; assay: Phosphorylation microarray in NCCIT and JoPaca-1 cells; assay type: cell-based; conditions: NCCIT and JoPaca-1, 1 μM, 24 hours
Method: Cells were analysed in the presence (24 hours O4I3 1 μM) or absence (NT) of O4I3.
The cellular responses to O4I3 was analyzed in two stem cell lines, NCCIT and JoPaca-1 (FIG. 10).

KDM5D = target: T4, KDM5D (Homo sapiens, UniProt Q9BY66); assay: KDM5D inhibition, enzyme immunoprecipitated from cells; assay type: biochemical
T4 construct: magnetic beads were used to immunoprecipitate the respective enzymes from 10^8 cells; endogenous in cells
T4 sequence (Q9BY66 whole entry): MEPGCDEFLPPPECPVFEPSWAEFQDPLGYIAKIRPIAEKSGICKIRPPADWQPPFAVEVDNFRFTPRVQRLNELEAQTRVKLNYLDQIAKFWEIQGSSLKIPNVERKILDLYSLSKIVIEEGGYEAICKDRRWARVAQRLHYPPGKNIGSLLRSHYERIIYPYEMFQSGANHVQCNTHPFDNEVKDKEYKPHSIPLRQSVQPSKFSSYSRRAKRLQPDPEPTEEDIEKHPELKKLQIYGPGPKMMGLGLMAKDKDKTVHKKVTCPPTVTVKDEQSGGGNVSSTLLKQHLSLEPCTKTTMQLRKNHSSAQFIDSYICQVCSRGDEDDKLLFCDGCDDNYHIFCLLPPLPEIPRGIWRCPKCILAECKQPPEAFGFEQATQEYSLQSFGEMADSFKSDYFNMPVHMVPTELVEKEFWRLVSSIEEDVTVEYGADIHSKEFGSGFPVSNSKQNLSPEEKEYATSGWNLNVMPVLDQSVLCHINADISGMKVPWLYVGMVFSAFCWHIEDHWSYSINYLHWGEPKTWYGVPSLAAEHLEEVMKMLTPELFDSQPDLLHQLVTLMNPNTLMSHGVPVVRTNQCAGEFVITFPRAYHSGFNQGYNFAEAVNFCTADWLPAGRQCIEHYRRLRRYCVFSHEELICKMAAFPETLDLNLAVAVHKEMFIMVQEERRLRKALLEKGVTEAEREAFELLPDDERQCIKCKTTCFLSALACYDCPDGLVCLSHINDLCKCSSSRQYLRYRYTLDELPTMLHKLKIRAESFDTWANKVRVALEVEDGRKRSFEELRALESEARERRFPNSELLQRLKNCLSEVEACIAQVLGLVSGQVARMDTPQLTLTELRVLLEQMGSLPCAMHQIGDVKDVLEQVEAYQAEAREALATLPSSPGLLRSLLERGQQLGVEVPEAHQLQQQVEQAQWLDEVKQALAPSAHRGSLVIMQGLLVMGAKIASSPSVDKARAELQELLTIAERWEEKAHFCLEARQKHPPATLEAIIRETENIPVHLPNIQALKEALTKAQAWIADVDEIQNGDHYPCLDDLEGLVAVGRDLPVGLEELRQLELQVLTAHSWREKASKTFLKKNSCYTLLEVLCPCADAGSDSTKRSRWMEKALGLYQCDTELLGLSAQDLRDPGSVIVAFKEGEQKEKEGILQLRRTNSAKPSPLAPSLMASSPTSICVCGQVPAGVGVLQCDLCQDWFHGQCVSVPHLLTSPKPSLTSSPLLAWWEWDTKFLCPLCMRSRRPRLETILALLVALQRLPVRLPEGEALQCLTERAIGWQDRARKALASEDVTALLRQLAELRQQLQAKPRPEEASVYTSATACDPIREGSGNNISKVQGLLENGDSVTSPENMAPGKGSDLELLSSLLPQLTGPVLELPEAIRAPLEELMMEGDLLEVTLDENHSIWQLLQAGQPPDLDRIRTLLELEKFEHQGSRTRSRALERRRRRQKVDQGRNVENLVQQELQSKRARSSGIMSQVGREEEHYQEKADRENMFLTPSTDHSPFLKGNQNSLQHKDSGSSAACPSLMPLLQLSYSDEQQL
Source text: as §1, §2

human fibroblasts = assay: Episome-based reprogramming of human fibroblasts, AP+ / iPSC-like colonies; assay type: cell-based
Method: O4I3 was applied in commercially available episome-based reprogramming cocktail containing episomal vectors for overexpression of Oct4, Sox2, Klf4, Lin28 and L-Myc, as well as suppression of p53. In comparison to non-treated fibroblast cultures, 20 times more alkaline phosphatase (AP) positive colonies were detected in the presence of O4I3 at a concentration of 50 nM in two tested human primary fibroblasts (HF1 and HF2) (FIG. 13).
It is known in the art that senescence or other unknown factors can confer donor fibroblasts resistance to reprogramming. Therefore, O4I3 was tested for its ability to enable reprogramming of refractory fibroblasts. Two human fibroblasts were selected. HFF-LTR7-EGFP at passage >40 carrying EGFP driven by a LTR7 promoter, which was activated during reprogramming, and HF5, isolated from a patient sample, both of which were resistant to an episome-based reprogramming approach (FIG. 13).
Epi5® Episomal iPSC Reprogramming Kit (Life technologies) was used to reprogram human fibroblasts according to the manufacturer's protocol. Briefly, 5,000-50,000 cells were seeded in a 24-well plate for 24 h and then transfected with episomal vectors in N2 B27 medium. After 14 days, cells were re-suspended with 0.5 mM EDTA and re-plated in a 6-well plate in Essential®8 medium. Colonies were isolated after 3-4 weeks with the help of alkaline phosphatase (AP) live stain (Life technologies). Medium was refreshed daily.

iPSCs = assay: qRT-PCR gene expression in iPSCs; assay type: cell-based, human; conditions: 50 nM, 24 h
Method: A) O4I3 promoted the viability of hiPSCs in single cell expansion. B) Homogeneous expression of […] and Oct4 up to passage (p) 30 in hiPSCs treated with 50 nM O4I3 analyzed by FACS C) Relative fold changes to non-treatment in hiPSCs treated with O4I3 (50 nM) for 24 h analyzed by qRT-PCR. D) Gene expression profiling analysis of functional annotation enrichment for categories related to pluripotency, development and homeostasis in O4I3-treated iPSCs for 24 h. Data are represented as mean±SD from at least 3 independent experiments ***: p<0.001; **: p<0.01; *: p<0.05.
Quantitative reverse-transcription real-time-PCR was performed using a Light Cycler 96 (Roche, Germany) following the manufacturer's protocol. Briefly, total RNA was isolated from cells using TRIzol (Qiagen, Germany) or NucleoSpin®RNA Plus (Macherey-Nagel, Germany). The same amount of RNA was used to reverse-transcriptional synthesize cDNA by using random primers ProtoScript® First Strand cDNA Synthesis Kit (NEB, Germany). qPCR was performed using the SYBR Green PCR master mix (qPCRBIO SyGreen Mix Lo-Rox, Nippon Genetics, Germany) and the primer pairs indicated below (MWG, Eurofins, Germany). Actin was used as an endogenous control. Data were normalized to the value of untreated cells showing the mean±SD of quadruplicates and are representative of at least three independent experiments.

## Cc1ccc(-c2cn3cc(C)ccc3n2)cc1 [O4I3, 6-methyl-2-(p-tolyl)imidazo[1,2-a]pyridine]
hiPSCs
  differentiation markers T and Gata4: induction of those markers
KDM5C
  IC50 less potent than for KDM5A, KDM5C: 40 fold
KDM5B
  IC50 less potent than for KDM5A, KDM5B: 1,000 fold
KDM4 [1]
  less potency on KDM4 than on KDM5: 500 fold
KDM4 [2]
  IC50: 0.249 µM
KDM5
  IC50: 0.00079 µM
Neural stem cells
  viability of neural stem cells in comparison to mock treated: increased
[3]
  activation of Erk1: selectively activated
  activation of Erk2: not
KDM5D
  IC50 less potent than for KDM5A, KDM5D: 20 fold
Human fibroblasts; 50 nM, HF1 and HF2
  alkaline phosphatase (AP) positive colonies in comparison to non-treated fibroblast cultures: 20 times
Human fibroblasts; 500 Nm, HFF-LTR7-EGFP and HF5
  reprogramming of resistant fibroblasts: appearance of iPSC-like colonies
iPSCs
  expression of pluripotency-associated genes: stabilized or slightly increased
